Measured values as given in patent US20220204456A1, “COMPOUND FOR TREATING AUTOIMMUNE SKIN DISEASES CAUSED BY INFLAMMATION, AND USE THEREOF” (GenEros Biopharma Ltd., priority 2019, published 2022).
“Also recorded” adds a separate entry of the source.

Tests used:
[1] = Animal body weight in psoriasis model, Example 1; type: in vivo, BALB/c mice; conditions: for Statistical significance analysis of body weight: vs vehicle control group, t-test, DEX cream 70 mg external
Protocol: (§1) Female BALB/c mice (purchased from Shanghai SLACK Laboratory Animal Co., Ltd, administered at 6 weeks of age) were randomly divided into groups after adapting to the environment. Except for the normal control group, the rest of the animals received imiquimod ointment (5%) externally to induce the establishment of a psoriasis model. Specifically, the mice were shaved off same area of the back hair and applied with 62.5 mg of imiquimod ointment daily for seven consecutive days. Animals received different treatment programs, weighed daily, orally or externally applied with drugs once, and recorded with disease progression score.
(§2) Both the vehicle control group and the Nib1 treatment group received oral gavage of the same volume of drugs, formulated with 30% PEG300, and the Nib1 group was given a dose of 10 mg/kg. Dexamethasone ointment was used as a positive treatment drug and received 70 mg smear treatment once a day. The disease progression score is evaluated on a scale of 0-4 based on three indicators, rash, peeling, and thickening (0: no symptoms; 1: mild symptoms; 2: moderate symptoms; 3: significant symptoms; 4: very significant symptoms). At the end of the experiment, the animals were sacrificed, and pathological section analysis was performed on the skin samples of the back lesions.

[2] = Animal body weight in psoriasis model, Example 2 (external application); type: in vivo, BALB/c mice; conditions: 70 mg external once a day for 7 days
Protocol: After adapting to the environment, female BALB/c mice were randomly divided into groups. Except for the normal control group, the rest received external treatment with imiquimod ointment (5%) to induce the establishment of a psoriasis model. Specifically, the mice were shaved off the same area (2×3 cm) of back hair and applied with 62.5 mg ointment daily for seven consecutive days. The animals received different treatments, weighed daily, received 70 mg smear treatment once, and recorded with disease progression score. The disease progression score is evaluated on a scale of 0-4 based on three indicators, rash, peeling, and thickening (0: no symptoms; 1: mild symptoms; 2: moderate symptoms; 3: significant symptoms; 4: very significant symptoms). At the end of the experiment, the animals were sacrificed, and pathological section analysis was performed on the skin samples of the back lesions.

psoriasis model [3] = assay: Clinical scoring (rash, peeling, thickening) in imiquimod-induced psoriasis model, Example 1; type: in vivo, BALB/c mice; conditions: for statistical significance analysis of rash scores / statistical significance analysis of skin thickening scores / statistical significance analysis of total clinical scores / statistical significance analysis of peeling scores: vs vehicle control group, t-test, Nib1 10 mg/kg oral, DEX cream 70 mg external
Protocol: as §1, §2
The clinical scoring of three indicators including skin rash, peeling and thickening were recorded and shown as statistical average value and ±standard error by day.

[4] = J Neurol Neurosurg Psychiatry 1986;49:791-795; cited from earlier work
psoriasis model [5] = assay: Pathological section analysis and scoring of back lesion skin, Example 1; type: in vivo, BALB/c mice; conditions: Nib1 10 mg/kg oral
Protocol: as §2
The pathological sections of animal skin were stained with eosin. Three samples were selected for each group.

[6] = Nib1 10 mg/kg oral once a day, vs model group

Row | Structure (SMILES) | statistical significance analysis of rash scores (psoriasis model [3]; day 1) | statistical significance analysis of skin thickening scores (psoriasis model [3]; day 1) | statistical significance analysis of total clinical scores (psoriasis model [3]; day 1) | statistical significance analysis of rash scores (psoriasis model [3]; day 2) | statistical significance analysis of total clinical scores (psoriasis model [3]; day 2) | statistical significance analysis of peeling scores (psoriasis model [3]; day 3) | statistical significance analysis of rash scores (psoriasis model [3]; day 3) | statistical significance analysis of skin thickening scores (psoriasis model [3]; day 3) | statistical significance analysis of total clinical scores (psoriasis model [3]; day 3) | statistical significance analysis of peeling scores (psoriasis model [3]; day 4) | statistical significance analysis of skin thickening scores (psoriasis model [3]; day 4) | statistical significance analysis of total clinical scores (psoriasis model [3]; day 4) | statistical significance analysis of peeling scores (psoriasis model [3]; day 5) | statistical significance analysis of skin thickening scores (psoriasis model [3]; day 5) | statistical significance analysis of total clinical scores (psoriasis model [3]; day 5) | statistical significance analysis of peeling scores (psoriasis model [3]; day 6) | statistical significance analysis of skin thickening scores (psoriasis model [3]; day 6) | statistical significance analysis of total clinical scores (psoriasis model [3]; day 6) | further results
1 | C[C@@H]1C[C@H]2[C@@H]3CCC4=CC(=O)C=C[C@]4(C)[C@@]3(F)[C@@H](O)C[C@]2(C)[C@@]1(O)C(=O)CO [DEX, Dexamethasone] | ** (** p < 0.01) | **** (**** p < 0.0001) | **** (**** p < 0.0001) | **** (**** p < 0.0001) | **** (**** p < 0.0001) | **** (**** p < 0.0001) | **** (**** p < 0.0001) | **** (**** p < 0.0001) | **** (**** p < 0.0001) | **** (**** p < 0.0001) | **** (**** p < 0.0001) | **** (**** p < 0.0001) | **** (**** p < 0.0001) | **** (**** p < 0.0001) | **** (**** p < 0.0001) | **** (**** p < 0.0001) | **** (**** p < 0.0001) | **** (**** p < 0.0001) | body weights of the animals ([1]; Example 1, 7 days, Nib1 10 mg/kg oral, dexamethasone ointment 70 mg topical, once a day): significantly reduced; Statistical significance analysis of body weight ([1]; day 1, Nib1 10 mg/kg oral): * (* p < 0.05); Statistical significance analysis of body weight ([1]; day 4, Nib1 10 mg/kg oral): * (* p < 0.05); Statistical significance analysis of body weight ([1]; day 5, Nib1 10 mg/kg oral): ** (** p < 0.01); Statistical significance analysis of body weight ([1]; day 6, Nib1 10 mg/kg oral): **** (**** p < 0.0001); Statistical significance analysis of body weight ([1]; day 7, Nib1 10 mg/kg oral): **** (**** p < 0.0001); weight loss [2]: more than 25%; statistical significance analysis of skin thickening scores (psoriasis model [3]; day 2): **** (**** p < 0.0001); statistical significance analysis of rash scores (psoriasis model [3]; day 4): **** (**** p < 0.0001); statistical significance analysis of rash scores (psoriasis model [3]; day 5): **** (**** p < 0.0001); statistical significance analysis of rash scores (psoriasis model [3]; day 6): **** (**** p < 0.0001); statistical significance analysis of peeling scores (psoriasis model [3]; day 7): *** (*** p < 0.001); statistical significance analysis of rash scores (psoriasis model [3]; day 7): **** (**** p < 0.0001); statistical significance analysis of skin thickening scores (psoriasis model [3]; day 7): **** (**** p < 0.0001); statistical significance analysis of total clinical scores (psoriasis model [3]; day 7): **** (**** p < 0.0001)
2 | O=c1[nH]c2ccccc2n1C1CCN(CCCC(c2ccc(F)cc2)c2ccc(F)cc2)CC1 [Nib1, Pimozide] | **** (**** p < 0.0001) | ** (** p < 0.01) | **** (**** p < 0.0001) | * (* p < 0.05) | ** (** p < 0.01) | *** (*** p < 0.001) | ** (** p < 0.01) | * (* p < 0.05) | **** (**** p < 0.0001) | *** (*** p < 0.001) | *** (*** p < 0.001) | **** (**** p < 0.0001) | **** (**** p < 0.0001) | *** (*** p < 0.001) | *** (*** p < 0.001) | ** (** p < 0.01) | ** (** p < 0.01) | ** (** p < 0.01) | systemic risks on long-term use [4]: has not shown systemic risks; toxic and side effect (judged from body weight) ([1]; mouse, in vivo, po, 10 mg/kg): significantly less than that of dexamethasone; pathological section findings (epidermal hyperplasia, immune cell infiltration) (psoriasis model [5]; stained skin sections, 100x): improve epidermal hyperplasia and reduce immune cell infiltration; remission effect by pathological section score (psoriasis model [5]; scoring system of Table 2, p<0.01 vs vehicle control, one-way ANOVA): 32.5%; remission by area under the clinical total score curve (AUC) (psoriasis model [3]; Nib1 10 mg/kg oral once a day for 7 days, compared with the disease model group): 32.2%; total score of the three clinical indicators (psoriasis model [3]; Nib1 10 mg/kg oral once a day, vs disease model group, 10 mg/kg): significantly lower clinical symptoms than the disease model group; also recorded: significantly reduce the clinical symptoms of psoriasis; peeling clinical score (psoriasis model [3]; [6]): significantly reduce the peeling phenomenon; skin thickening clinical score (psoriasis model [3]; [6]): significantly reduced on the 4th, 5th, and 6th days; rash clinical score (psoriasis model [3]; Nib1 10 mg/kg oral once a day, vs model group, significantly different in the first three days): slightly reduced rash
